Test results from US7462646B2, “Osteoclastogenesis inhibitors and uses thereof” (Research Development Foundation, priority 2003, dated 2008).

How the values were obtained:
[1] = test system: NF-κB; assay: RANKL-induced NF-κB activation by EMSA in RAW 264.7 cells; assay type: cell-based, mouse
Procedure: (§1) RAW264.7 cells (1×10^6 cells) were incubated with variable concentrations of guggulsterone for 4 h followed by treatment of the cells with RANKL (10 nM) for 25 min. The samples were then analyzed for NF-κB by EMSA. […] RAW264.7 cells (5×10^6 cells) were incubated with guggulsterone (50 μM) for 4 h followed by treatment of the cells with RANKL (10 nM) for different times. The samples were then analyzed for IKK by immune complex kinase assay.
RAW264.7 cells (1×10^6 cells) were incubated with 1′-Acetoxychavicol (50 μM) and RANKL (10 nm) for different times. The samples were then analyzed for NF-κB by EMSA. […] RAW264.7 cells (1×10^6 cells) were incubated with variable concentrations of 1′-Acetoxychavicol and RANKL (10 nM) for 25 min. The samples were then analyzed for NF-κB by EMSA.
Nuclear extracts were prepared as described earlier (Bharti et al., 2003). Briefly, 2×10^6 RAW264.7 cells were washed with cold PBS, scraped, and suspended in 0.4 ml of hypotonic lysis buffer containing protease inhibitors for 30 min. The cells were then lysed with 12.5 μl of 10% Nonidet P-40. The homogenate was centrifuged, and supernatant containing the cytoplasmic extracts was stored frozen at −80° C. The nuclear pellet was re-suspended in 25 μl ice-cold nuclear extraction buffer. After 30 min of intermittent mixing, the extract was centrifuged, and supernatants containing nuclear extracts were secured. The protein content was measured by the Bradford method. If the extracts were not used immediately, they were stored at −80° C.
NF-κB activation was analyzed by electrophoretic mobility gel shift assay as described (Chaturvedi et al., 1994). […] The radioactive bands from the dried gels were visualized and quantitated by the Phosphorlmager (Molecular Dynamics, Sunnyvale, Calif.) using ImageQuant software.

[2] = test system: IκBα; assay: RANKL-induced IκBα degradation by Western blotting in RAW 264.7 cells; assay type: cell-based, mouse
Procedure: (§2) RAW264.7 cells (1×10^6 cells) were incubated with 1′-Acetoxychavicol (50 μM) and RANKL (10 nM) for different times. The samples were then analyzed for IκBα by western blot. […] RAW264.7 cells (1×10^6 cells) were incubated with different combinations of 1′-Acetoxychavicol (50 μM), RANKL (10 nM), acetyl-leucyl-leucyl-norleucinal (ALLN, 50 μg/ml) for 25 min. The samples were analyzed for phosphorylated IκBα by western blot.
(§3) Thirty to fifty micrograms of cytoplasmic protein extracts were resolved on 10% SDS-PAGE gel. After electrophoresis, the proteins were electrotransferred to a nitrocellulose membrane, blocked with 5% nonfat milk, and probed with antibodies against either IκBα, phospho-IκBα, IKKα, IKKβ, or β-actin (1:3000) for 1 h. Thereafter, the blot was washed, exposed to HRP-conjugated secondary antibodies for 1 h, and finally detected by chemiluminescence (ECL, Amersham Pharmacia Biotech, Arlington Heights, Ill.).

[3] = test system: phospho-IκBα; assay: RANKL-induced IκBα phosphorylation by Western blotting in RAW 264.7 cells; assay type: cell-based, mouse; settings: for RANKL-induced phosphorylation of IκBα: RANKL 10 nM
Procedure: as §2, §3

[4] = molecular target: T1, IκB kinase (IKK) (Mus musculus, UniProt O88351+Q60680); assay: IκB kinase (immune complex kinase) assay on extracts of treated RAW 264.7 cells; assay type: cell-based
T1 construct: 200 μg cytoplasmic extracts were immunoprecipitated with 1 μg of anti-IKKα and anti-IKKβ antibodies each; endogenous in cells; host or cells: RAW 264.7 (mouse macrophage cell line), cytoplasmic extracts, immunoprecipitated with anti-IKKα and anti-IKKβ
Procedure: as §1

[5] = test system: IKKα; assay: IKKα protein expression by Western blotting; assay type: cell-based, mouse; settings: curcumin 50 μM; FIG. 2C middle/lower panel
Procedure: as §3
(§4) The IκB kinase assay was performed by a modified method as described earlier (Manna et al., 2000). Briefly, 200 μg cytoplasmic extracts were immunoprecipitated with 1 μg of anti-IKKα and anti-IKKβ antibodies each, and the immune complexes so formed were precipitated with 0.01 ml of protein A/G-Sepharose beads for 2 hours. The beads were washed first with lysis buffer and then with the kinase assay buffer (50 mM HEPES pH 7.4, 20 mM MgCl2, and 2 mM DTT). The immune complex was then assayed for kinase activity usinig kinase assay buffer containing 20 μCi [γ-^32P] ATP, 10 μM unlabeled ATP, and 2 μg/sample glutathione S-transferase-IκBα (amino acids 1-54). After incubation at 30° C. for 30 min, the mixture was boiled with 6×SDS sample buffer to stop the reaction. […] The radioactive bands of the dried gel were visualized and quantitated by Phosphorlmager. […]

[6] = test system: IKKβ; assay: IKKβ protein expression by Western blotting; assay type: cell-based, mouse; settings: curcumin 50 μM; FIG. 2C middle/lower panel
Procedure: as §3, §4

[7] = test system: RAW 264.7 cells; assay: Osteoclast differentiation assay (RANKL-induced, TRAP staining); assay type: cell-based, mouse
Procedure: Cells were cultured for 5 days after RANKL treatment and stained for TRAP expression. […] Values indicate mean of total osteoclasts in triplicate cultures (error bar indicates s.d.).
RAW264.7 cells (1×10^4 cells) were incubated with guggulsterone (5 μM) and RANKL (5 nM) for different days. The samples were then analyzed for osteoclastogenesis by TRAP assay. […]
RAW264.7 cells were cultured in 24-well dishes at a density of 1×10^4 cells per well and were allowed to adhere overnight. Medium was then replaced and the cells were treated with 100 ng/ml (˜5 nM) RANKL. At day 5, cultures were stained for TRAP expression as described (Shevde et al., 2000) using an acid phosphatase kit, and the total number of TRAP-positive multinucleated osteoclasts (>3 nuclei) per well were counted.

[8] = test system: RAW264.7 cells incubated with MDA-MB-468 cells; assay: MDA-MB-468 breast adenocarcinoma cells-induced osteoclastogenesis (TRAP assay); assay type: cell-based, mouse; settings: five days
Procedure: (§5) RAW264.7 cells (1×10^4 cells) were incubated either with MDA-MB-468 cells (1×10^3 cells) or with MCF-7 cells (1×10^3 cells) in the presence of varying concentrations of 1′-Acetoxychavicol for five days and then analyzed for osteoclastogenesis by TRAP assay.
(§6) RAW264.7 cells (1×10^4 cells) were incubated with MDA-MB-468 cells (1×10^3 cells) or with MCF-7 cells (1×10^3 cells) in the presence of varying concentrations of guggulsterone for five days and then analyzed for osteoclastogenesis by TRAP assay.
(§7) The ability of tumor cells to induce osteoclastogenesis was also investigated in this study. Cells from head and neck squamous cell carcinoma and breast adenocarcinoma were used for this purpose. Briefly, RAW264.7 cells were incubated with different numbers of cells of head and neck squamous cell carcinoma (HN5, Fadu) or breast adenocarcinoma (MDA-MB-468, MCF-7) and then analyzed for osteoclastogenesis by TRAP assay.

[9] = test system: RAW264.7 cells incubated with MCF-7 cells; assay: MCF-7 breast adenocarcinoma cells-induced osteoclastogenesis (TRAP assay); assay type: cell-based, mouse; settings: five days
Procedure: as §5, §6, §7

[10] = curcumin 10 μM, RANKL 5 nM, 5 days, FIG. 4

T1 sequence (Q60680 whole entry): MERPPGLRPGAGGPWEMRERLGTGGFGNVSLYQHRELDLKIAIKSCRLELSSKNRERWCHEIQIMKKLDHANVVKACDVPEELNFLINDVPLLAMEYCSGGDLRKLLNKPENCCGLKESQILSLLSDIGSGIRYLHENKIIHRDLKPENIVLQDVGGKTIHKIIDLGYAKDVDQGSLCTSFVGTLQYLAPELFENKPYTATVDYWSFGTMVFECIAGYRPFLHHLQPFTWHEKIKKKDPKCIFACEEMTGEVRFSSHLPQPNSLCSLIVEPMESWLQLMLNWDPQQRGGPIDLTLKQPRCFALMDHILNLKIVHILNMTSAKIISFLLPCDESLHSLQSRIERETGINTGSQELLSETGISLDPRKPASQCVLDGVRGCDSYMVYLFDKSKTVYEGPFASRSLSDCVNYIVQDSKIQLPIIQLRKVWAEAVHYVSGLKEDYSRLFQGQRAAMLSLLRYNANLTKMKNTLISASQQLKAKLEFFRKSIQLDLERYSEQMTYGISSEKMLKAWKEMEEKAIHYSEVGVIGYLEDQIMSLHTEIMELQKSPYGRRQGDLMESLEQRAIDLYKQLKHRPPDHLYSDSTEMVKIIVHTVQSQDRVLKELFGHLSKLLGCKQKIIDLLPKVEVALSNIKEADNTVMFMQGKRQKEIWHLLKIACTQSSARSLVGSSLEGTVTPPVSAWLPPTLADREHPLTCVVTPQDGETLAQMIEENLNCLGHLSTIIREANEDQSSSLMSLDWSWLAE
T1 sequence (O88351 whole entry): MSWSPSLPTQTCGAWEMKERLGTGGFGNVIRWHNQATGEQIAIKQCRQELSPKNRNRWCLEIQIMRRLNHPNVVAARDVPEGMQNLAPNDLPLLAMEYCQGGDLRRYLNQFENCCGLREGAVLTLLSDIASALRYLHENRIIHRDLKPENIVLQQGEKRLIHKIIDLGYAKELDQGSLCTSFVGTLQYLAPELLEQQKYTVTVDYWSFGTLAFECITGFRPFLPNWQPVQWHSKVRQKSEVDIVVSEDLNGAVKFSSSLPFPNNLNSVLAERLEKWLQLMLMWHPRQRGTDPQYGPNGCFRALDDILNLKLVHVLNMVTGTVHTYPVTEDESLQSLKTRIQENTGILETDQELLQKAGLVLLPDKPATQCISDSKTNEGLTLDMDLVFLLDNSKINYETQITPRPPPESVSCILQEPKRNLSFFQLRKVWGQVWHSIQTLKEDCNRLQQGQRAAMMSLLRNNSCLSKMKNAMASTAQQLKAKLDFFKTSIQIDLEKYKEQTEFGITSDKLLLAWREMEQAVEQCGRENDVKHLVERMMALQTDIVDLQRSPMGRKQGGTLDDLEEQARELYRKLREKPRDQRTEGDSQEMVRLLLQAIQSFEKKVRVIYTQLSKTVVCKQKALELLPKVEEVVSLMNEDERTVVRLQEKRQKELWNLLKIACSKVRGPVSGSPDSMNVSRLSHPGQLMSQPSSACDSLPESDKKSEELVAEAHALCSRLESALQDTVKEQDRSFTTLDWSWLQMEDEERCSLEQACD
T1 sequence (O88522 whole entry partner): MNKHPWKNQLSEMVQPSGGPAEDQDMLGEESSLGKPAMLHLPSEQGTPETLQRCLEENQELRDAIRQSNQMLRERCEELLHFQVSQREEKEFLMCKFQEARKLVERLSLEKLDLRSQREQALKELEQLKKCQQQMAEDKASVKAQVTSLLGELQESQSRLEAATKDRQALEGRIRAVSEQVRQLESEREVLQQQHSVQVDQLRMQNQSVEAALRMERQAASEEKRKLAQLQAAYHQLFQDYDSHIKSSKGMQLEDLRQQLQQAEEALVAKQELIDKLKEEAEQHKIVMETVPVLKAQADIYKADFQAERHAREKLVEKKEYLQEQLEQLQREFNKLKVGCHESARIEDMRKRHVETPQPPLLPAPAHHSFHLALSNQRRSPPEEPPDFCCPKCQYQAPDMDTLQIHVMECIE

Compound: COc1cc(/C=C/C(=O)CC(=O)/C=C/c2ccc(O)c(OC)c2)ccc1O [curcumin, diferuloylmethane]
- RANKL-induced NF-κB activation (EMSA) ([1]; curcumin 50 μM for 2 hours, then RANKL 10 nM, FIG. 1A): completely abrogated the RANKL-induced NF-κB activation
- concentration of curcumin at which complete inhibition of RANKL-induced NF-κB activation was observed ([1]; curcumin 2 h, then RANKL 10 nM, FIG. 1B): 50 µM
- dose dependence of inhibition of RANKL-induced NF-κB ([1]; indicated concentrations of curcumin 2 h, then RANKL 10 nM, FIG. 1B): increased as the dose of curcumin was increased
- RANKL-induced IκBα level (degradation) ([2]; curcumin 50 μM 2 h pretreatment, RANKL 10 nM, FIG. 2A): no decrease in the RANKL-induced IκBα level
- RANKL-induced phosphorylation of IκBα ([3]; curcumin 50 μM 2 h pretreatment, FIG. 2B): eliminated the RANKL-induced phosphorylation
- phosphorylation of IκBα, curcumin alone ([3]; curcumin alone, no RANKL, FIG. 2B): did not result in phosphorylation of IκBα
- RANKL-induced IKK activity (phosphorylation of GST-IκBα substrate) ([4]; curcumin 50 μM 2 h pretreatment, RANKL 10 nM, FIG. 2C upper panel): could not phosphorylate guggulsterone T-IκBα upon RANKL treatment
- expression of IKKα [5]: did not alter the expression
- expression of IKKβ [6]: did not alter the expression
- number of RANKL-induced osteoclasts versus curcumin concentration ([7]; RANKL 5 nM, different concentrations of curcumin, 5 days, FIG. 3B): number of osteoclasts decreased with increasing concentration of curcumin
- RANKL-induced osteoclastogenesis, curcumin added together with RANKL ([7]; curcumin 10 μM added at the same time as RANKL 5 nM, 5 days): suppressed osteoclastogenesis maximally
- RANKL-induced osteoclastogenesis, curcumin added 24 hours after RANKL [7, 10]: inhibited osteoclastogenesis
- RANKL-induced osteoclastogenesis, curcumin added 2 days after RANKL [7, 10]: inhibitory effect decreased significantly

Compound: C/C=C1\C(=O)C[C@H]2[C@@H]3CCC4=CC(=O)CC[C@]4(C)[C@H]3CC[C@]12C [guggulsterone]
- concentration of guggulsterone at which maximal inhibition of RANKL-induced NF-κB activation was observed ([1]; guggulsterone 4 h, then RANKL 10 nM 25 min, FIG. 6A): 50 µM
- NF-κB activation, guggulsterone alone ([1]; guggulsterone in the absence of RANKL, FIG. 6A): no NF-κB activation
- dose dependence of suppression of RANKL-induced NF-κB activation (EMSA) ([1]; variable concentrations of guggulsterone 4 h, then RANKL 10 nM 25 min, FIG. 6A): suppression of this activation increased as the concentration of guggulsterone increased
- RANKL-induced IKK activity (immune complex kinase assay) ([4]; guggulsterone 50 μM 4 h pretreatment, RANKL 10 nM different times, FIG. 6B): absence of IKK activity upon RANKL treatment
- RANKL-induced osteoclastogenesis, time of addition of guggulsterone ([7]; RANKL 5 nM, guggulsterone 5 μM added on different days, FIG. 8): suppressed RANKL-induced osteoclastogenesis only when added together with RANKL
- RANKL-induced osteoclastogenesis (TRAP assay) ([7]; guggulsterone 5 μM and RANKL 5 nM for different days, FIG. 7A): suppressed RANKL-induced osteoclastogenesis
- number of RANKL-induced TRAP positive cells ([7]; guggulsterone, RANKL 5 nM, FIG. 7B): decreased with increasing concentration of guggulsterone
- number of TRAP-positive cells, MDA-MB-468 co-incubation ([8]; varying concentrations of guggulsterone, FIG. 16B): decreased as the concentration of guggulsterone increased
- MDA-MB-468 cells induced osteoclastogenesis ([8]; varying concentrations of guggulsterone, FIGS. 16A and 16B): suppressed
- number of TRAP-positive cells, MCF-7 co-incubation ([9]; varying concentrations of guggulsterone, FIG. 16D): decreased as the concentration of guggulsterone increased
- MCF-7 cells induced osteoclastogenesis ([9]; varying concentrations of guggulsterone, FIGS. 16C and 16D): suppressed

Compound: C=CC(OC(C)=O)c1ccc(O)cc1 (stereo not shown) [1′-Acetoxychavicol]
- RANKL-induced NF-κB activation (EMSA), time course ([1]; 1′-Acetoxychavicol 50 μM and RANKL 10 nM for different times, FIG. 9A): suppressed RANKL-induced NF-κB activation in time-dependent manner
- concentration of 1′-Acetoxychavicol at which maximal inhibition of RANKL-induced NF-κB activation was observed ([1]; RANKL 10 nM 25 min, FIG. 9B): 50 µM
- RANKL-induced NF-κB activation (EMSA), dose dependence ([1]; variable concentrations of 1′-Acetoxychavicol and RANKL 10 nM for 25 min, FIG. 9B): suppressed RANKL-induced NF-κB activation in a dose-dependent manner
- RANKL-induced IκBα level (degradation) ([2]; 1′-Acetoxychavicol 50 μM and RANKL 10 nM for different times, FIG. 10A): no decrease in the RANKL-induced IκBα level
- RANKL-induced phosphorylation of IκBα ([3]; 1′-Acetoxychavicol 50 μM, ALLN 50 μg/ml, 25 min, FIG. 10B): suppressed
- RANKL-induced osteoclastogenesis (TRAP assay), incubated for 3 days ([7]; 1′-Acetoxychavicol 0.5 μM and RANKL 5 nM, 3 days, FIG. 11A): able to suppress the RANKL-induced osteoclastogenesis
- RANKL-induced osteoclastogenesis (TRAP assay), incubated for longer than 3 days ([7]; 1′-Acetoxychavicol 0.5 μM and RANKL 5 nM, longer time, FIG. 11A): osteoclasts were seen
- RANKL-induced osteoclastogenesis, time of addition of 1′-Acetoxychavicol ([7]; RANKL 5 nM, 1′-Acetoxychavicol 0.5 μM added on different days, FIG. 12): suppressed RANKL-induced osteoclastogenesis only when added together with RANKL
- number of RANKL-induced osteoclasts versus 1′-Acetoxychavicol concentration ([7]; different concentrations of 1′-Acetoxychavicol, RANKL 5 nM, FIG. 11B): decreased with increasing concentrations of 1′-Acetoxychavicol
- number of TRAP-positive cells, MDA-MB-468 co-incubation ([8]; varying concentrations of 1′-Acetoxychavicol, FIG. 15B): decreased as the concentration of 1′-Acetoxychavicol increased
- MDA-MB-468 cells induced osteoclastogenesis ([8]; varying concentrations of 1′-Acetoxychavicol, FIGS. 15A and 15B): suppressed
- number of TRAP-positive cells, MCF-7 co-incubation ([9]; varying concentrations of 1′-Acetoxychavicol, FIG. 15D): decreased as the concentration of 1′-Acetoxychavicol increased
- MCF-7 cells induced osteoclastogenesis ([9]; varying concentrations of 1′-Acetoxychavicol, FIGS. 15C and 15D): suppressed
